# Experimental data taken from patent US9066948B2, “Oxadiazolo[3,2-a]pyrimidines and thiadiazolo[3,2-a]pyrimidines” (THE UNITED STATES OF AMERICA AS REPRESENTED BY THE …, priority 2010, dated 2015).
# What was measured:
# purified αIIbβ3 = biological target: T1, purified αIIbβ3 (Homo sapiens, UniProt P05106+P08514); assay: Extension of purified αIIbβ3 in nanodiscs by negative staining electron microscopy; details: concentrations up to 10 μM
# T1 construct: αIIbβ3 is purified from outdated single donor platelet concentrates obtained from the New York Blood Center; tissue New York Blood Center; host or cells: outdated single donor platelet concentrates
# Protocol: In brief, the His-tagged membrane scaffold protein is prepared as a recombinant protein in E. coli and purified by Nickel affinity chromatography and anion exchange chromatography. Final assembly consists of solubilizing an equimolar mixture of 1,2-dimyristoyl-sn-glycero-3-phosphocholine and 1,2-dimyristoyl-sn-glycero-3-phospho-(1′-rac-glycerol) in octylglucoside and cholate and then adding the purified αIIbβ3. The detergents are removed with macroporous polymeric beads (Bio-Bead SM-2) and then the αIIbβ3 nanodiscs are separated from the empty nanodiscs by gel filtration.
# αIIbβ3 nanodiscs are treated with eptifibatide, tirofiban, 2-ethyl-7-(piperazin-1-yl)-5H-[1,3,4]thiadiazolo-[3,2-a]pyrimidin-5-one of U.S. Ser. No. 12/514,286, or the compound of Example 27 of the current invention for 1 hour at room temperature at concentrations up to 100 μM for 2-ethyl-7-(piperazin-1-yl)-5H-[1,3,4]thiadiazolo-[3,2-a]pyrimidin-5-one (a compound claimed in U.S. Ser. No. 12/514,286) and at concentrations up to 10 μM for 2-amino-N-(3-(5-oxo-7-(piperazin-1-yl)-5H-[1,3,4]thiadiazolo[3,2-a]pyrimidin-2-yl)phenyl)acetamide of Example 27. Samples are loaded onto carbon-coated copper grids that are glow-discharged by a carbon coating unit (Edwards; Crowley, UK), and then stained with 2% uranyl acetate, followed by drying. Imaging of αIIbβ3 nanodiscs is performed using a JOEL JEM 100CX transmission electron microscope (Jeol Ltd; Tokyo, Japan) at 80 kV and magnifications of 33,000× and 50,000×. Individual nanodiscs containing αIIbβ3 are manually selected for analysis using Image J (NIH, Bethesda, Md.). The distance from the bottom of the nanodisc to the height of the αIIbβ3 complex (nanodisc-integrin length; NIL) is measured as an indicator of integrin extension. The frequency distribution of NIL values is then analyzed for untreated αIIbβ3 nanodiscs and αIIbβ3 nanodiscs in the presence of different compounds.
# WT mouse platelets = assay: ADP-induced platelet aggregation, mouse PRP (Example 45); format: cell-based
# Protocol: Blood may be drawn via cardiac puncture from anesthetized Sprague Dawley rats (Taconic, Hudson, N.Y.), WT C57B1/6 mice (Jackson Laboratories, Bar Harbor, Me.), and mice expressing hαIIb/mβ3 and diluted 1:1 with a mixture of 4 parts 0.165 […], pH 7.4 containing 2 mM CaCl2 and 1 mM MgCl2. Blood from consenting human volunteers is obtained from a peripheral vein using a 19 gauge needle and anticoagulated with 1:10 vol 3.8% sodium citrate. Platelet-rich plasma (PRP) may be isolated by centrifugation at 22° C. at 350 g for 10 minutes (rats); 250 g for 2.5 minutes (mice); or 650 g for 4 minutes (human). Mouse PRP samples may be adjusted to 400,000 platelets/μl with the buffer used for dilution and human PRP may be adjusted to 300,000 platelets/μl with platelet-poor plasma. […] Platelet aggregation may be induced by adding to PRP adenosine diphosphate (ADP) at 30 μM (rats and WT mice), 20 or 30 μM (hαIIb/mβ3 mice), or 5 μM (humans), and light transmission may be measured over time in an aggregometer (Kowa AG-10E, Tokyo, Japan) with stirring. Percent inhibition may be calculated by comparing the initial slope of untreated samples to the samples treated with the Compounds of the Invention.
# [1] = biological target: T2, HEK293 cells stably expressing normal human αIIbβ3 (Homo sapiens, UniProt P05106+P08514); assay: αIIbβ3-mediated cell adhesion to fibrinogen; format: cell-based; details: same concentration as αVβ3 experiments (10 μM), n=4
# T2 construct: expressed in transfected cells; host or cells: HEK293
# Protocol: Washed platelets are prepared as per the primary screening assay, suspended in HBMT containing 1 mM MgCl2 (platelet adhesion to collagen) or 2 mM CaCl2/1 mM MgCl2 (platelet adhesion to fibrinogen) and adjusted to a count of 250×10^9/L. HEK293 cells stably expressing normal human αVβ3 or normal human αIIbβ3 are suspended in HBMT containing either 1 mM MgCl2 (HEK293 cells expressing αVβ3 for adhesion to vitronectin) or 2 mM CaCl2/1 mM MgCl2 (HEK293 cells expressing αIIbβ3 for adhesion to fibrinogen); the cell counts are adjusted to 10^6/mL. Polystyrene 96-well microtiter plates (Nunc) are coated with either fibrinogen (50 μg/mL), vitronectin (5 μg/mL), or collagen (33 μg/mL, rat tail type 1; Becton Dickinson) for 1 hour, and blocked with HBMT for at least 1 hour. Platelets and cells are treated with the compound of Example 27 of the current invention or 2-ethyl-7-(piperazin-1-yl)-5H-[1,3,4]thiadiazolo-[3,2-a]pyrimidin-5-one of U.S. Ser. No. 12/514,286 in the presence or absence of anti-α2β1 mAb 6F1, anti-αIIbβ3 mAb 10E5, anti-αIIbβ3 mAb 10E5+αVβ3 mAb 7E3, αVβ3-specific mAb LM609, or anti-αVβ3+αIIbβ3 mAb 7E3, for 15 minutes at 37° C. before being added to the microtiter wells. After adhering for 1 hour at either 22° C. (platelets) or 37° C. […]
# [2] = biological target: T3, HEK293 cells stably expressing normal human αVβ3 (Homo sapiens, UniProt P05106+P06756); assay: αVβ3-mediated cell adhesion to vitronectin; format: cell-based
# T3 construct: expressed in transfected cells; host or cells: HEK293
# Protocol: Washed platelets are prepared as per the primary screening assay, suspended in HBMT containing 1 mM MgCl2 (platelet adhesion to collagen) or 2 mM CaCl2/1 mM MgCl2 (platelet adhesion to fibrinogen) and adjusted to a count of 250×10^9/L. HEK293 cells stably expressing normal human αVβ3 or normal human αIIbβ3 are suspended in HBMT containing either 1 mM MgCl2 (HEK293 cells expressing αVβ3 for adhesion to vitronectin) or 2 mM CaCl2/1 mM MgCl2 (HEK293 cells expressing αIIbβ3 for adhesion to fibrinogen); the cell counts are adjusted to 10^6/mL. Polystyrene 96-well microtiter plates (Nunc) are coated with either fibrinogen (50 μg/mL), vitronectin (5 μg/mL), or collagen (33 μg/mL, rat tail type 1; Becton Dickinson) for 1 hour, and blocked with HBMT for at least 1 hour. Platelets and cells are treated with the compound of Example 27 of the current invention or 2-ethyl-7-(piperazin-1-yl)-5H-[1,3,4]thiadiazolo-[3,2-a]pyrimidin-5-one of U.S. Ser. No. 12/514,286 in the presence or absence of anti-α2β1 mAb 6F1, anti-αIIbβ3 mAb 10E5, anti-αIIbβ3 mAb 10E5+αVβ3 mAb 7E3, αVβ3-specific mAb LM609, or anti-αVβ3+αIIbβ3 mAb 7E3, for 15 minutes at 37° C. before being added to the microtiter wells. After adhering for 1 hour at either 22° C. (platelets) or 37° C. (cells), nonadherent platelets or cells are removed by washing 3 times with HBMT containing the same ion composition as the buffer used for adhesion. […] In other experiments, 8-chambered glass coverslips (Nunc) are coated with collagen (33 μg/mL) for 1 hour at 22° C. Washed platelets are allowed to adhere for 1 hour at 22° C. and the coverslips are stained with the Alexa-488-conjugated β3-specific mAb 7H2. Adherent platelets are imaged using a Zeiss LSM-510 confocal system with Axiovert 200 microscope (Carl Zeiss, Heidelberg, Germany) using a Plan-Apochromat 100/1.4 NA oil DIC objective.
# washed platelets = assay: Effect of Mg2+ on washed platelet aggregation induced by thrombin receptor activating peptide (SFLLRN); format: cell-based, human; details: compound at 1 μM; SFLLRN 10 μM
# Protocol: Washed platelets are resuspended in buffer containing fibrinogen (200 μg/ml) and 1 mM […] in combination with either 1 mM or 20 mM Mg^2+. Aggregation is induced by adding a thrombin receptor activating peptide (SFLLRN) at 10 μM.
# T2 sequence (P08514 32-887 limits assumed): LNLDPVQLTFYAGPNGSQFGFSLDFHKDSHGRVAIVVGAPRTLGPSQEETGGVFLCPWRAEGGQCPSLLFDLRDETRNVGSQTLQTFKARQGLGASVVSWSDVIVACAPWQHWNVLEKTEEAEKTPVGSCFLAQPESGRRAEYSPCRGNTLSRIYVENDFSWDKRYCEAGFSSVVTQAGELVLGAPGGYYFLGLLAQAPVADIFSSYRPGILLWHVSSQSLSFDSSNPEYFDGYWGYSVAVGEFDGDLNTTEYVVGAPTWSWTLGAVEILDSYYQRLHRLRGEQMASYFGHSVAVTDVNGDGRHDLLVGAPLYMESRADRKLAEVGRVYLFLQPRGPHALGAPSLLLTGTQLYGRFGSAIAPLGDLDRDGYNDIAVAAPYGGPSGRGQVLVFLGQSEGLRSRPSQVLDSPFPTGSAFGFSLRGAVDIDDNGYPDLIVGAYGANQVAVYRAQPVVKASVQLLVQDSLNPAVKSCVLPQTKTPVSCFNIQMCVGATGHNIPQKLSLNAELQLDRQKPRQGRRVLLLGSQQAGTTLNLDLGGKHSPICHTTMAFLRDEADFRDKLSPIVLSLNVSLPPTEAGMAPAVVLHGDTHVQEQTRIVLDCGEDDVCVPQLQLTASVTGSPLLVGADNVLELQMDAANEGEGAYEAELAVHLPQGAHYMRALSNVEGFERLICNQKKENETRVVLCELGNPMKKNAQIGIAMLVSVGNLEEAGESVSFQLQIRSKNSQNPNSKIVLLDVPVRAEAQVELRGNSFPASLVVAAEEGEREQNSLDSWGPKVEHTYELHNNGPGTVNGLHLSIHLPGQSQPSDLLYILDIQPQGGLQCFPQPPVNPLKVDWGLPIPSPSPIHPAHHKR
# T2 sequence (P08514 891-1039 partner limits assumed): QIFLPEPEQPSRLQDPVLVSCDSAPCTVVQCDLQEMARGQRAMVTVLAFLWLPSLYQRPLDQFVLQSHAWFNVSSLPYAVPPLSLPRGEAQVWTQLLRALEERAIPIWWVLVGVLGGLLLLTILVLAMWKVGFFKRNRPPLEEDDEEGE
# T2 sequence (P05106 27-788): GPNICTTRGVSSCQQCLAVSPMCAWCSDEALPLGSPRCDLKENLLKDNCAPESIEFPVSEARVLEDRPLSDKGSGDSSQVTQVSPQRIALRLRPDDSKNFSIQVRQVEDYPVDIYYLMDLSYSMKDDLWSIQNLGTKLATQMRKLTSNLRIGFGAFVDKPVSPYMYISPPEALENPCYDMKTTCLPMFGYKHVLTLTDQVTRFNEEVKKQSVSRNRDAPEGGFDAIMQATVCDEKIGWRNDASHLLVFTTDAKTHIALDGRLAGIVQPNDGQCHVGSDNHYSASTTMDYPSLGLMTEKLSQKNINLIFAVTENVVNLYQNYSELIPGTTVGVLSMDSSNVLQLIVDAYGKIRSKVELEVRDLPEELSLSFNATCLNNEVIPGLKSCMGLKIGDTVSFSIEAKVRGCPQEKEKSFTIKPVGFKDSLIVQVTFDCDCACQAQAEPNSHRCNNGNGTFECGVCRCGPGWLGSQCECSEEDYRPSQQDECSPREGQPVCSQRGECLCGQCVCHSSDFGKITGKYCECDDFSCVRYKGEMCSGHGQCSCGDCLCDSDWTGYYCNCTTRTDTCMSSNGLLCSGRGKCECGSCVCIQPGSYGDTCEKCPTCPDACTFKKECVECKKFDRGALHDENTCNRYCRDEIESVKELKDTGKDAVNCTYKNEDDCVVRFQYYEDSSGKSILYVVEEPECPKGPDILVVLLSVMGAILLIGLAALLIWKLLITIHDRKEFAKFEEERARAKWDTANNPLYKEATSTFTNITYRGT
# T1 sequence (P08514 32-887 limits assumed): as the sequence (P08514 32-887 limits assumed) above
# T1 sequence (P08514 891-1039 partner limits assumed): as the sequence (P08514 891-1039 partner limits assumed) above
# T1 sequence (P05106 27-788): as the sequence (P05106 27-788) above
# T3 sequence (P06756 31-889 limits assumed): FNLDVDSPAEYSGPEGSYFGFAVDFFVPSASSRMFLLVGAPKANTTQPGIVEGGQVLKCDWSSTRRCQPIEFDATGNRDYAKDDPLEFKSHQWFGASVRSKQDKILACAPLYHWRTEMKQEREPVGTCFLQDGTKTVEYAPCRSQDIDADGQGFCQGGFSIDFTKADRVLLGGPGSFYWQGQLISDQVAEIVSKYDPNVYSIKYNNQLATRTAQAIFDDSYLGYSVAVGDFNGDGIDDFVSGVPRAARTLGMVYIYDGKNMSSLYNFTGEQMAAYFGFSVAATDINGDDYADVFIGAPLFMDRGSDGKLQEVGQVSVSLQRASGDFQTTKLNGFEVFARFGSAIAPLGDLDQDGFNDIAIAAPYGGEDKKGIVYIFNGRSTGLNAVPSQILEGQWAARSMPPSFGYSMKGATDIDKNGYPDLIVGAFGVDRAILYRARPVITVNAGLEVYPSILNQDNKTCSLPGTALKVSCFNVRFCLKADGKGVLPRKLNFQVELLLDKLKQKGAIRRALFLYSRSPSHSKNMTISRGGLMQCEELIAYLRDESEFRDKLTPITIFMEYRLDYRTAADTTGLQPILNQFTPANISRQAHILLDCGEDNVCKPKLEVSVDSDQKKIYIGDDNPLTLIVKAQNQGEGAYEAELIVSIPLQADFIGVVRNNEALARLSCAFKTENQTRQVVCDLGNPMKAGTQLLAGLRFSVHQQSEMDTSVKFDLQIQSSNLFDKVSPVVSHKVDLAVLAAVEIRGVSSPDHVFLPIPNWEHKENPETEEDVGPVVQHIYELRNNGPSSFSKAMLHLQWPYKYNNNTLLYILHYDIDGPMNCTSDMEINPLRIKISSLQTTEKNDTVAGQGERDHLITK
# T3 sequence (P06756 891-1048 partner limits assumed): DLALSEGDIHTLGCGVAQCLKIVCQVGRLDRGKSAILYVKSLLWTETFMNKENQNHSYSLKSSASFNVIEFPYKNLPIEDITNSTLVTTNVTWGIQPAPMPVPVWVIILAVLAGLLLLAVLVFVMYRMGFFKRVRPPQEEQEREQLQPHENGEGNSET
# T3 sequence (P05106 27-788): as the sequence (P05106 27-788) above
smiles,measurement,setting,value
"NCC(=O)Nc1cccc(-c2nn3c(=O)cc(N4CCNCC4)nc3s2)c1 [Example 27, 2-amino-N-(3-(5-oxo-7-(piperazin-1-yl)-5H-[1,3,4]thiadiazolo[3,2-a]pyrimidin-2-yl)phenyl)acetamide]",shift of nanodisc-integrin length (NIL) values / receptor extension,purified αIIbβ3,do not induce receptor extension
same,selectivity for human compared to mouse or rat αIIbβ3,WT mouse platelets,selective for human WIND compared to mouse or rat αIIbβ3
same,inhibition of mouse platelet aggregation induced by ADP,WT mouse platelets; 1 μM,does not inhibit either mouse or rat platelet aggregation
same,inhibition at 10 µM,[1],65 ± 5%
same,selectivity for αIIbβ3 compared to αVβ3,[2],selective for αIIbβ3 compared to αVβ3
same,effect of Mg2+ on the inhibition of SFLLRN-induced platelet aggregation,washed platelets,clearly attenuated at 20 mM Mg^2+
